Like-named read-outs stand apart in the source and are kept apart here.
Assays:
[1] = tested on: A375 melanoma cells
Protocol: (§1) The MTT colorimetric assay was performed as a preliminary evaluation of the cytotoxicity of the selected flavonoids according to the method described and validated by Strawa et al. [21]. Briefly, melanoma cells and fibroblasts were seeded in 96-well microplates at a density of 1 × 10^4 cells per well. Fibroblasts were used as a control cell line in order to assess the selectivity of the compounds. […] Subsequently, the cells were washed with PBS, incubated with MTT solution for 2 h, and lysed with dimethyl sulfoxide (DMSO) supplemented with 1% (v/v) Sorensen’s glycine buffer. The absorbance was measured using a microplate reader (EPOCH 2, BioTek, Winooski, VT, USA) at a wavelength of 570 nm. The compounds were used at a final DMSO concentration of no more than 0.1% (v/v) in each well. The results were generated from at least three independent experiments. […] The IC50 values were calculated with GraphPad Prism 9 software (GraphPad Software, San Diego, CA, USA).

[2] = tested on: C32 melanoma cells
Protocol: as §1

[3] = tested on: human skin fibroblasts (CCD25Sk)
Protocol: as §1

[4] = tested on: C32 melanoma cells; test: Neutral red uptake (NRU) assay, C32
Protocol: (§2) The NRU (neutral red uptake) was conducted as previously described by Szoka and co-workers, with some modifications [22]. Briefly, melanoma cells and fibroblasts were seeded in microplates at the density of 1 × 10^4 cells per well and allowed to adhere for 24 h. […] After treatment, the culture medium was replaced with a neutral red solution (40 µg/mL). An additional 2 h of incubation was performed. The neutral red solution was then removed and the neutral red accumulated in the cells was dissolved in 50% EtOH with 1% of the glacial acetic acid. The absorbance was estimated at 540 nm and IC50 values were calculated using GraphPad Prism software (GraphPad Software, San Diego, CA, USA).

[5] = tested on: A375 melanoma cells; test: Neutral red uptake (NRU) assay, A375; details: read-out: IC50, cytotoxic activity, NRU assay
Protocol: as §2

[6] = tested on: human skin fibroblasts (CCD25Sk); test: Neutral red uptake (NRU) assay, normal cells; details: read-out: IC50, cytotoxic activity, NRU assay, Normal cells (fibroblasts)
Protocol: as §2

[7] = tested on: C32 melanoma cells; test: MTT cell viability assay, C32; details: read-out: IC50, cytotoxic activity, MTT test;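 also: MTT added for 2 h, cells lysed in DMSO, absorbance read at 570 nm, compound vehicle kept at or below 0.1% DMSO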
Protocol: as §1

[8] = tested on: A375 melanoma cells; test: MTT cell viability assay, A375;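 also: Read-out is formazan absorbance at 570 nm after 2 h with MTT, with compounds in at most 0.1% v/v DMSO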
Protocol: as §1

[9] = tested on: human skin fibroblasts (CCD25Sk); test: MTT cell viability assay, normal cells; details: read-out: IC50, cytotoxic activity, MTT test, Normal cells (fibroblasts);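 also: fibroblasts served as non-cancer comparison line for selectivity versus melanoma cells, MTT reduction read as absorbance at 570 nm after 2 h dye exposure, compounds in ≤0.1% DMSO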
Protocol: as §1

[10] = tested on: A375 melanoma cells; test: [3H]-thymidine incorporation (DNA biosynthesis), A375; assay type: cell-based, human; details: read-out: IC50, effect on DNA biosynthesis ([3H]-thymidine incorporation)
Protocol: (§3) The inhibition of DNA biosynthesis was evaluated using [^3H]-thymidine incorporation into the DNA of melanoma cells (C32, A375) and fibroblasts treated with the studied compounds [21]. The cells were briefly seeded in 24-well plates (1 × 10^5 cells per well) and allowed to adhere for 24 h. […] After incubation for 24, 48, and 72 h, the cells were rinsed three times with PBS. Then, cells were lysed in 1 mL of 0.1 M NaOH containing 1% SDS. The cell lysate was moved into scintillation vials containing scintillation liquid, and the radioactivity of the samples was measured using a liquid scintillation analyzer (Perkin-Elmer, Waltham, MA, USA).

[11] = tested on: C32 melanoma cells; test: [3H]-thymidine incorporation (DNA biosynthesis), C32; assay type: cell-based, human; details: read-out: IC50, effect on DNA biosynthesis ([3H]-thymidine incorporation)
[12] = tested on: human skin fibroblasts (CCD25Sk); test: [3H]-thymidine incorporation (DNA biosynthesis), normal cells; assay type: cell-based; details: Homo sapiens, Skin fibroblast, read-out: IC50, effect on DNA biosynthesis ([3H]-thymidine incorporation)
Protocol: as §3

[13] = tested on: A375 melanoma cells; test: Apoptosis assay, annexin V/PI flow cytometry, A375; assay type: cell-based, human; details: 48 h
Protocol: Firstly, cells were placed in 6-well plates at a density of 1 × 10^5 cells per well and allowed to adhere for 24 h. Then, cells were treated with 25 µM, 50 µM, and 100 μM of the selected flavonoids (1, 6, 15, 16, 17, 37) and incubated for 48 h. Floating and adherent cells were collected and assayed using the manufacturer’s protocol supported by the Dead Cell Apoptosis Kit for flow cytometry. Concisely, 100 μL of an annexin-binding buffer containing a 5 μL annexin V-FITC conjugate solution and 1 μg/mL PI (propidium iodide) was used to disperse the cells. After 15 min of incubation, an additional 400 μL of the mentioned buffer was added. The cells were analyzed with a DxFLEX flow cytometer (Beckman Coulter, Brea, CA, USA).

[14] = tested on: caspases, PARP, phospho-RSK in A375 cells; test: Western immunoblot of apoptosis mediators and RSK, A375; assay type: cell-based, human; details: A375, 48 h, Western blot
[15] = tested on: caspases, PARP, phospho-RSK in C32 cells; test: Western immunoblot of apoptosis mediators and RSK, C32; assay type: cell-based, human; details: C32, 48 h, Western blot
Protocol: Floating cells were harvested by centrifugation of the conditioned media (300× g, 5 min). Cell pellet and adherent cells were lysed in a cell lysis buffer supplemented with inhibitors of proteases and phosphatases. The cell lysate was sonicated (2 × 10 s) on ice with an ultrasonic homogenizer (UP200S, Hielscher Ultrasonics GmbH, Teltow, Germany) and centrifuged for 10 min at 10,000× g. The supernatant was collected and stored in a freezer at −70 °C. Protein concentrations in the cell supernatants were determined using a Lowry assay. Obtained proteins were dissolved on SDS-PAGE gels (7.5%, 10%, or 12%) using the Mini-Protean Tetra system. The proteins were transferred to nitrocellulose membranes using the Mini Trans-Blot Cell wet blotting system. The 5% skim milk was used to block membranes. Then, membranes were probed for 24 h at 4 °C with the following antibodies: anti-phospho-RSK, anti-RSK, anti-PARP, anti-cleaved PARP, anti-caspase-8, anti-caspase-9, anti-caspase-7, anti-caspase-3, and anti-actin. Membranes were incubated with an ECL-HRP (enhanced chemiluminescence-horseradish peroxidase) substrate, and the signal was spotted using the BioSpectrum Imaging System and VisionWorks LS software 7.0 (Ultra-Violet Products, Ltd., San Gabriel, CA, USA). The intensity of the bands was quantified by densitometric analysis using UVIBand software, version 15.08d (Uvitec Ltd., Cambridge, UK).

[16] = tested on: cleaved caspase-3 and cleaved caspase-7 in C32 cells; test: Immunofluorescence of cleaved caspase-3/-7, C32; assay type: cell-based, human; details: C32, 48 h, immunofluorescent staining
Protocol: Firstly, to examine fluorescent signals, cells were placed in the bottom of 96-well black plates at 1 × 10^4 cells per well and permitted to adhere for 24 h. […] After incubating and removing the medium, cells were fixed in 4% paraformaldehyde for 15 min. Later, cells were rinsed three times with PBS and permeabilized with 0.1% Triton X-100 for 5 min at room temperature. The 10% heat-inactivated goat serum in the PBS was used to block non-specific binding. Subsequently, cells were treated with the following antibodies overnight: anti-cleaved caspase 3 and anti-cleaved caspase-7. […] Cell nuclei were stained with Hoechst 33342 and F-actin was stained with Phalloidin-Atto 488. Fluorescent signals were captured using a BD Pathway 855 confocal microscope (Becton Dickinson, Franklin Lakes, NJ, USA). The mean fluorescence intensity was calculated using ImageJ software (National Institutes of Health, Bethesda, Rockville, MD, USA).

[17] = MTT cell viability assay, normal cells; details: human;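 also: fibroblasts served as non-cancer comparison line for selectivity versus melanoma cells, MTT reduction read as absorbance at 570 nm after 2 h dye exposure, compounds in ≤0.1% DMSO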
Protocol: as §1

[18] = Neutral red uptake (NRU) assay, normal cells; details: human
Protocol: as §2

[19] = read-out: IC50, cytotoxic activity, NRU assay, C32, 24 h
[20] = read-out: IC50, cytotoxic activity, NRU assay, C32, 48 h
[21] = read-out: IC50, cytotoxic activity, NRU assay, C32, 72 h
[22] = Homo sapiens, A-375, A375, 24 h
[23] = Homo sapiens, A-375, A375, 48 h
[24] = Homo sapiens, A-375, A375, 72 h
[25] = human skin fibroblasts (CCD25Sk)

Compound: COc1ccc(-c2cc(=O)c3c(O)cc(O)c([C@@H]4OC[C@@H](O)[C@H](O)[C@H]4O[C@@H]4O[C@H](CO)[C@@H](O)[C@H](O)[C@H]4O)c3o2)cc1O [Compound 11, 5,7,3′-trihydroxy-4′-methoxyflavone-8-C-xyloside-2″-O-glucoside]
- IC50 [1]: > 200 µM
- IC50 [2]: > 200 µM
- IC50 [3]: > 200 µM
- IC50 [4, 19]: > 200 µM
- IC50 [4, 20]: > 200 µM
- IC50 [4, 21]: > 200 µM
- IC50 ([5]; A375, 24 h): > 200 µM
- IC50 ([5]; A375, 48 h): > 200 µM
- IC50 ([5]; A375, 72 h): > 200 µM
- IC50 ([6]; 24 h): > 200 µM
- IC50 ([6]; 48 h): > 200 µM
- IC50 ([6]; 72 h): > 200 µM

Compound: CC(=O)Oc1ccc(-c2cc(=O)c3c(O)cc(O)c([C@@H]4OC[C@@H](O)[C@H](O)[C@H]4O[C@@H]4O[C@H](CO)[C@@H](O)[C@H](O)[C@H]4O)c3o2)cc1O [Compound 10, 5,7,3′-trihydroxy-4′-acetoxy-flavone-8-C-xyloside-2″-O-glucoside]
- IC50 [1]: > 200 µM
- IC50 [2]: > 200 µM
- IC50 [3]: > 200 µM
- IC50 [4, 19]: > 200 µM
- IC50 [4, 20]: > 200 µM
- IC50 [4, 21]: > 200 µM
- IC50 ([5]; A375, 24 h): > 200 µM
- IC50 ([5]; A375, 48 h): > 200 µM
- IC50 ([5]; A375, 72 h): > 200 µM
- IC50 ([6]; 24 h): > 200 µM
- IC50 ([6]; 48 h): > 200 µM
- IC50 ([6]; 72 h): > 200 µM

Compound: kaempferol 3-O-galactoside [Compound 22]
- IC50 ([7]; C32, 24 h): > 200 µM
- IC50 ([7]; C32, 48 h): > 200 µM
- IC50 ([7]; C32, 72 h): > 200 µM
- IC50 ([8]; read-out: IC50, cytotoxic activity, MTT test, A375, 24 h): > 200 µM
- IC50 ([8]; read-out: IC50, cytotoxic activity, MTT test, A375, 48 h): > 200 µM
- IC50 ([8]; read-out: IC50, cytotoxic activity, MTT test, A375, 72 h): > 200 µM
- IC50 [4, 19]: > 200 µM
- IC50 [4, 20]: > 200 µM
- IC50 [4, 21]: > 200 µM
- IC50 ([5]; A375, 24 h): > 200 µM
- IC50 ([5]; A375, 48 h): > 200 µM
- IC50 ([5]; A375, 72 h): > 200 µM
- IC50 ([9]; 24 h): > 200 µM
- IC50 ([9]; 48 h): > 200 µM
- IC50 ([9]; 72 h): > 200 µM
- IC50 ([6]; 24 h): > 200 µM
- IC50 ([6]; 48 h): > 200 µM
- IC50 ([6]; 72 h): > 200 µM

Compound: O=c1cc(-c2ccccc2)oc2ccc(O)c(O)c12 [Compound 15, 5,6-dihydroxyflavone]
- IC50 ([10]; A375, 48 h): 32.4 ± 2.4 µM
- IC50 [10, 22]: > 200 µM
- IC50 [10, 23]: 32.4 ± 0.49 µM
- IC50 [10, 24]: 31.4 ± 1.7 µM
- IC50 ([11]; C32, 48 h): 20 ± 1.9 µM
- IC50 ([11]; Homo sapiens, C32, C32, 24 h): > 200 µM
- IC50 ([11]; Homo sapiens, C32, C32, 48 h): 20.1 ± 0.98 µM
- IC50 ([11]; Homo sapiens, C32, C32, 72 h): 20.3 ± 1.2 µM
- IC50 ([12]; 24 h): 175 ± 7.6 µM
- IC50 ([12]; 48 h): > 200 µM
- IC50 ([12]; 72 h): > 200 µM
- level of early apoptotic cells ([13]; A375, 25 µM): 42.0 ± 4.5%
- level of late apoptotic cells ([13]; A375, 25 µM): 8.9 ± 2.2%
- expression of cleaved caspase-8 [14]: increased
- cleaved PARP and caspase-9 [15]: generated cleaved PARP and caspase-9
- caspase-3 expression [16]: notably extended
- IC50 ([7]; Homo sapiens, C32, 24 h): 100 to 200 µM
- IC50 ([7]; Homo sapiens, C32, 48 h): 47.5 ± 3.5 µM
- IC50 ([7]; Homo sapiens, C32, 72 h): 23.5 ± 1.9 µM
- IC50 ([8]; Homo sapiens, A-375, 24 h, read-out: IC50, cytotoxic activity, MTT test, A375, 24 h): 86 ± 6.3 µM
- IC50 ([8]; Homo sapiens, A-375, 48 h, read-out: IC50, cytotoxic activity, MTT test, A375, 48 h): 36.4 ± 2 µM
- IC50 ([8]; Homo sapiens, A-375, 72 h, read-out: IC50, cytotoxic activity, MTT test, A375, 72 h): 26.4 ± 1.2 µM
- IC50 ([4]; Homo sapiens, C32, 24 h, read-out: IC50, cytotoxic activity, NRU assay, C32, 24 h): 72.6 ± 5.5 µM
- IC50 ([4]; Homo sapiens, C32, 48 h, read-out: IC50, cytotoxic activity, NRU assay, C32, 48 h): 18.2 ± 2.1 µM
- IC50 ([4]; Homo sapiens, C32, 72 h, read-out: IC50, cytotoxic activity, NRU assay, C32, 72 h): 15.4 ± 1.1 µM
- IC50 ([5]; Homo sapiens, A-375, 24 h): 53.3 ± 4.6 µM
- IC50 ([5]; Homo sapiens, A-375, 48 h): 16 ± 1.1 µM
- IC50 ([5]; Homo sapiens, A-375, 72 h): 13.6 ± 1.1 µM
- IC50 at 24 h [17, 25]: > 200 µM
- IC50 at 48 h [17, 25]: > 200 µM
- IC50 at 72 h [17, 25]: > 200 µM
- IC50 at 24 h [18, 25]: > 200 µM
- IC50 at 48 h [18, 25]: 100 to 200 µM
- IC50 at 72 h [18, 25]: 100 to 200 µM

Compound: O=c1c(-c2ccc(O)cc2)coc2cc(O)cc(O)c12 [Compound 37, genistein]
- IC50 ([10]; A375, 48 h): 28 ± 0.8 µM
- IC50 [10, 22]: 154 ± 10.8 µM
- IC50 [10, 23]: 28.1 ± 0.87 µM
- IC50 [10, 24]: 24.2 ± 1.5 µM
- IC50 ([11]; C32, 48 h): 18.5 ± 0.7 µM
- IC50 ([11]; Homo sapiens, C32, C32, 24 h): 25.4 ± 1.3 µM
- IC50 ([11]; Homo sapiens, C32, C32, 48 h): 18.5 ± 0.21 µM
- IC50 ([11]; Homo sapiens, C32, C32, 72 h): 19.1 ± 0.3 µM
- IC50 ([12]; 24 h): > 200 µM
- IC50 ([12]; 48 h): > 200 µM
- IC50 ([12]; 72 h): > 200 µM
- level of early apoptotic cells ([13]; A375, 50 µM): 38.1 ± 4.2%
- level of late apoptotic cells ([13]; A375, 50 µM): 8.9 ± 1.9%
- cleavage of initiator caspases, caspase-9 and caspase-8 [14]: cleavage of both initiator caspases
- levels of the caspases-3 and -7 zymogens [14]: decreased levels
- phosphorylation of the RSK protein [14]: impaired
- cleaved PARP and caspase-9 [15]: generated cleaved PARP and caspase-9
- phosphorylation of RSK [15]: inhibited
- caspase-3 expression [16]: notably extended
- IC50 ([7]; Homo sapiens, C32, 24 h): > 200 µM
- IC50 ([7]; Homo sapiens, C32, 48 h): > 200 µM
- IC50 ([7]; Homo sapiens, C32, 72 h): 51.1 ± 3.5 µM
- IC50 ([8]; Homo sapiens, A-375, 24 h, read-out: IC50, cytotoxic activity, MTT test): 93.1 ± 5.8 µM
- IC50 ([8]; Homo sapiens, A-375, 48 h, read-out: IC50, cytotoxic activity, MTT test): 60.9 ± 4.2 µM
- IC50 ([4]; Homo sapiens, C32, 24 h, read-out: IC50, cytotoxic activity, NRU assay): 100 to 200 µM
- IC50 ([4]; Homo sapiens, C32, 48 h, read-out: IC50, cytotoxic activity, NRU assay): 31.5 ± 2.8 µM
- IC50 ([4]; Homo sapiens, C32, 72 h, read-out: IC50, cytotoxic activity, NRU assay): 14.4 ± 2.1 µM
- IC50 ([5]; Homo sapiens, A-375, 24 h): 49.2 ± 3.2 µM
- IC50 ([5]; Homo sapiens, A-375, 48 h): 32.3 ± 3.5 µM
- IC50 ([5]; Homo sapiens, A-375, 72 h): 19.3 ± 2.2 µM
- IC50 at 24 h [17]: > 200 µM
- IC50 at 48 h [17]: 100 to 200 µM
- IC50 at 72 h [17]: 56.8 ± 4.1 µM
- IC50 at 24 h [18]: > 200 µM
- IC50 at 48 h [18]: 57.8 ± 4 µM
- IC50 at 72 h [18]: 38.6 ± 3.7 µM

From PMC10854695, “Using Flavonoid Substitution Status to Predict Anticancer Effects in Human Melanoma Cancers: An In Vitro Study” (Cancers, 2024)
